# Experimental data reported in patent publication US12012467B2, “Small molecule DCN1 inhibitors and therapeutic methods using the same” (THE REGENTS OF THE UNIVERSITY OF MICHIGAN, priority 2017, dated 2024).
# Target: DCN1 (Homo sapiens (Human), UniProt Q96GG9)
# Assay: Competitive FP binding assay
# Details: bounds given in μM; read-out: Binding affinity to DCN1 (IC50)
# Description: Competitive FP Binding Assay
# The Fluorescence Polarization (FP) competitive binding assays were performed to accurately determine the binding affinities of our DCN1 inhibitors. […] Serial dilutions of proteins were mixed with 46 to a final volume of 200 μl in the assay buffer (100 mM phosphate buffer, pH=6.5, with 0.02% Tween-20 and 2% DMSO). Final probe concentration was 5 nM for both assays. Plates were incubated at room temperature for 30 minutes with gentle shaking to assure equilibrium.
# Pure proteins were derived from the same expression and purification protocols. Plasmids were transformed into Rosetta2 cells, the cells were grown in Terrific Broth at 37° C. to an O.D.600>1.0 and induced with 0.4 mM Isopropyl (3-D-1-thiogalactopyranoside overnight at 20° C. The pelleted cells were resuspended in lysis buffer containing 25 mM Tris-HCl, pH 7.5, 200 mM NaCl and protease inhibitors, sonicated and centrifuged at 34,000×g for 45 minutes to remove debris. Cleared lysate was incubated with Ni-NTA resin (Qiagen) prewashed with lysis buffer, for 1 hr at 4° C. The matrix was loaded into a column then washed with 25 mM Tris-HCl, pH 7.5, 200 mM NaCl and 10 mM imidazole. Protein was eluted with 25 mM Tris-HCl, pH 7.5, 200 mM NaCl and 300 mM imidazole, concentrated and applied to a Superdex 75 (GE Healthcare) column pre-equilibrated with 25 mM Tris pH 7.5, 200 mM NaCl and 1 mM DTT. For DCN2-5, the N-terminal His6 tag was removed prior to gel filtration. Tag removal was achieved through incubation with TEV protease during overnight dialysis against 25 mM Tris pH 7.5, 200 mM NaCl and 1 mM DTT and a second Ni-NTA column. DCN2-5 proteins were stored at −80° C. in 1 mg/mL fractions containing 5% glycerol. The uncleaved DCN1 protein was stored at −80° C. without glycerol.
# DCN1, sequence (Q96GG9 58-259): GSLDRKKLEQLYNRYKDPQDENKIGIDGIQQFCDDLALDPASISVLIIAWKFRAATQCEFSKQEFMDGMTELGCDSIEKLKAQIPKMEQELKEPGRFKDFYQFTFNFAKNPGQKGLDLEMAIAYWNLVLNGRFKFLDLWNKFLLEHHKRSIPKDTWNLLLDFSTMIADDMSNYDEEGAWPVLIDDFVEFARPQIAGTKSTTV
row,SMILES,IC50 [µM]
1,CCC(=O)N[C@@H](Cc1nc2c(F)cccc2s1)C(=O)N[C@H](C(=O)N[C@@H](CCCCN)C(=O)NC(c1ccccc1)c1ccccc1)C1CCCC1 [Example 26],> 3
2,CCC(=O)N[C@@H](Cc1nc2ccc(Cl)cc2s1)C(=O)N[C@H](C(=O)N[C@@H](CCCCN)C(=O)N[C@@H]1CCOc2ccccc21)C1CCNCC1 [Example 35],> 5

# Second part, the compound after the results:
row,IC50 [µM],SMILES
1,> 1,CCC(=O)N[C@H](Cc1nc2ccc(Cl)cc2s1)C(=O)N[C@H](C(=O)N[C@@H](CCCCN)C(=O)N[C@@H]1CNCc2ccccc21)C1CCOCC1 [Example 44]
2,> 5,"CC[C@H](C)[C@@H](CN)NC(=O)[C@H](Cc1nc2ccc(C(C)C)cc2s1)NC=O [Example 48, (S)—N-((2S,3S)-1-amino-3-methylpentan-2-yl)-2-formamido-3-(6-isopropylbenzo[d]thiazol-2-yl)propanamide]"
3,> 10,"CC[C@H](C)[C@@H](CN)NC(=O)[C@@H](N)Cc1nc2ccc(C(C)C)cc2s1 [Example 49, (S)-2-amino-N-((2S,3S)-1-amino-3-methylpentan-2-yl)-3-(6-isopropylbenzo[d]thiazol-2-yl)propanamide]"
4,> 10,"CCC(=O)N[C@@H](Cc1nc2ccc(C(C)C)cc2s1)C(=O)NCCN [Example 53, (S)—N-(2-aminoethyl)-3-(6-isopropylbenzo[d]thiazol-2-yl)-2-propionamidopropanamide]"
5,> 10,"CCC(=O)N[C@@H](Cc1nc2ccc(C(C)C)cc2s1)C(=O)N[C@@H](C)CN [Example 54, (S)—N—((S)-1-aminopropan-2-yl)-3-(6-isopropylbenzo[d]thiazol-2-yl)-2-propionamidopropanamide]"

# Same assay, conditions: read-out: Binding affinity to DCN1 (IC50 (nM))
row,SMILES,IC50 [µM]
1,CCC(=O)N[C@@H](Cc1nc2ccccc2s1)C(=O)N[C@H](C(=O)N[C@@H](CCCCN)C(=O)NC(c1ccccc1)c1ccccc1)C1CCCC1 [Example 25],0.397
2,CCC(=O)N[C@@H](Cc1nc2cc(F)ccc2s1)C(=O)N[C@H](C(=O)N[C@@H](CCCCN)C(=O)NC(c1ccccc1)c1ccccc1)C1CCCC1 [Example 27],1.2
3,CCC(=O)N[C@@H](Cc1nc2ccc(F)cc2s1)C(=O)N[C@H](C(=O)N[C@@H](CCCCN)C(=O)NC(c1ccccc1)c1ccccc1)C1CCCC1 [Example 28],0.413
4,CCC(=O)N[C@@H](Cc1nc2cc(Cl)ccc2s1)C(=O)N[C@H](C(=O)N[C@@H](CCCCN)C(=O)NC(c1ccccc1)c1ccccc1)C1CCCC1 [Example 29],0.572
5,CCC(=O)N[C@@H](Cc1nc2ccc(Cl)cc2s1)C(=O)N[C@H](C(=O)N[C@@H](CCCCN)C(=O)NC(c1ccccc1)c1ccccc1)C1CCCC1 [Example 30],0.193
6,CCC(=O)N[C@@H](Cc1nc2cccc(Cl)c2s1)C(=O)N[C@H](C(=O)N[C@@H](CCCCN)C(=O)NC(c1ccccc1)c1ccccc1)C1CCCC1 [Example 31],0.137
7,CCC(=O)N[C@@H](Cc1nc2ccc(Cl)cc2s1)C(=O)N[C@H](C(=O)N[C@@H](CCCCN)C(=O)N[C@@H]1CCCc2ccccc21)C1CCCC1 [Example 32],0.157
8,CCC(=O)N[C@@H](Cc1nc2ccc(Cl)cc2s1)C(=O)N[C@H](C(=O)N[C@@H](CCCCN)C(=O)N[C@@H]1CCOc2ccccc21)C1CCCC1 [Example 33],0.103
9,CCC(=O)N[C@@H](Cc1nc2ccc(Cl)cc2s1)C(=O)N[C@H](C(=O)N[C@@H](CCCCN(C)C)C(=O)N[C@@H]1CCOc2ccccc21)C1CCCC1 [Example 34],0.0179
10,CCC(=O)N[C@@H](Cc1nc2ccc(Cl)cc2s1)C(=O)N[C@H](C(=O)N[C@@H](CCCCN)C(=O)N[C@@H]1CCOc2ccccc21)C1CCOCC1 [Example 37],0.049
11,CCC(=O)N[C@@H](Cc1nc2ccc(Cl)cc2s1)C(=O)N[C@H](C(=O)N[C@@H](CCCCN(C)C)C(=O)N[C@@H]1CCOc2ccccc21)C1CCOCC1 [Example 38],0.123
12,CCC(=O)N[C@@H](Cc1nc2ccc(Cl)cc2s1)C(=O)N[C@H](C(=O)N[C@@H](CCCCN)C(=O)N[C@@H]1CNCc2ccccc21)C1CCCC1 [Example 39],0.173
13,CCC(=O)N[C@@H](Cc1nc2ccc(Cl)cc2s1)C(=O)N[C@H](C(=O)N[C@@H](CCCCN(C)C)C(=O)N[C@@H]1CN(C)Cc2ccccc21)C1CCCC1 [Example 40],0.163
14,"CCC(=O)N[C@@H](Cc1nc2ccc(C(C)C)cc2s1)C(=O)N[C@H](CN)Cc1ccccc1 [Example 55, (S)—N—((S)-1-amino-3-phenylpropan-2-yl)-3-(6-isopropylbenzo[d]thiazol-2-yl)-2-propionamidopropanamide]",0.179
15,CCC(=O)N[C@@H](Cc1nc2ccc(C(C)C)cc2s1)C(=O)N[C@H](CNC(=O)C12CCN(CC1)CC2)C1CCCCC1 [Example 64],0.036

# Continued, values first:
row,IC50 [µM],SMILES
1,0.222,CCC(=O)N[C@@H](Cc1nc2ccc(Cl)cc2s1)C(=O)N[C@H](C(=O)N[C@@H](CC1CCNCC1)C(=O)N[C@@H]1CCOc2ccccc21)C1CCOCC1 [Example 41]
2,0.299,CCC(=O)N[C@@H](Cc1nc2ccc(Cl)cc2s1)C(=O)N[C@H](C(=O)N[C@@H](CC1CCN(C)CC1)C(=O)N[C@@H]1CCOc2ccccc21)C1CCOCC1 [Example 42]
3,0.0843,CCC(=O)N[C@@H](Cc1nc2ccc(Cl)cc2s1)C(=O)N[C@H](C(=O)N[C@@H](CCCCN)C(=O)N[C@@H]1CNCc2ccccc21)C1CCOCC1 [Example 43]
4,0.116,CCC(=O)N[C@@H](Cc1nc2ccc(Cl)cc2s1)C(=O)N[C@@H](C[C@H]1CC[C@H](CN)CC1)C(=O)N[C@@H](CCCCN(C)C)C(=O)N[C@@H]1CCOc2ccccc21 [Example 45]
5,0.281 ± 0.029,"CC[C@H](C)[C@@H](CN)NC(=O)[C@H](Cc1nc2ccc(C(C)C)cc2s1)NC(C)=O [Example 46, (S)-2-acetamido-N-((2S,3S)-1-amino-3-methylpentan-2-yl)-3-(6-isopropylbenzo[d]thiazol-2-yl)propanamide]"
6,0.095 ± 0.0158,"CCC(=O)N[C@@H](Cc1nc2ccc(C(C)C)cc2s1)C(=O)N[C@H](CN)[C@@H](C)CC [Example 47, (S)—N-((2S,3S)-1-amino-3-methylpentan-2-yl)-3-(6-isopropylbenzo[d]thiazol-2-yl)-2-propionamidopropanamide]"
7,0.255 ± 0.029,"CC[C@H](C)[C@@H](CN)NC(=O)[C@H](Cc1nc2ccc(C(C)C)cc2s1)NC(=O)C(C)C [Example 50, (S)—N-((2S,3S)-1-amino-3-methylpentan-2-yl)-2-isobutyramido-3-(6-isopropylbenzo[d]thiazol-2-yl)propanamide]"
8,0.944 ± 0.176,"CCCC(=O)N[C@@H](Cc1nc2ccc(C(C)C)cc2s1)C(=O)N[C@H](CN)[C@@H](C)CC [Example 51, N—((S)-1-(((2S,3 S)-1-amino-3-methylpentan-2-yl)amino)-3-(6-isopropylbenzo[d]thiazol-2-yl)-1-oxopropan-2-yl)butyramide]"
9,0.558 ± 0.125,"CC[C@H](C)[C@@H](CN)NC(=O)[C@H](Cc1nc2ccc(C(C)C)cc2s1)NC(=O)NC [Example 52, (S)—N-((2S,3S)-1-amino-3-methylpentan-2-yl)-3-(6-isopropylbenzo[d]thiazol-2-yl)-2-(3-methylureido)propanamide]"
10,0.0796,"CCC(=O)N[C@@H](Cc1nc2ccc(C(C)C)cc2s1)C(=O)N[C@H](CN)C1CCCCC1 [Example 56, (S)—N—((S)-2-amino-1-cyclohexylethyl)-3-(6-isopropylbenzo[d]thiazol-2-yl)-2-propionamidopropanamide]"
11,0.0704,"CCC(=O)N[C@@H](Cc1nc2ccc(C(C)C)cc2s1)C(=O)N[C@H](CNC(=O)CN1CCOCC1)C1CCCCC1 [Example 57, (S)—N—((S)-1-cyclohexyl-2-(2-morpholinoacetamido)ethyl)-3-(6-isopropylbenzo[d]thiazol-2-yl)-2-propionamidopropanamide]"
12,0.0631,"CCC(=O)N[C@@H](Cc1nc2ccc(C(C)C)cc2s1)C(=O)N[C@H](CNC(=O)CCCN1CCOCC1)C1CCCCC1 [Example 59, N—((S)-2-cyclohexyl-2-((S)-3-(6-isopropylbenzo[d]thiazol-2-yl)-2-propionamidopropanamido)ethyl)-4-morpholinobutanamide]"
13,0.128,CCC(=O)N[C@@H](Cc1nc2ccc(C(C)C)cc2s1)C(=O)N[C@H](CNC(=O)c1ccncc1)C1CCCCC1 [Example 61]
14,0.0259,"CCC(=O)N[C@@H](Cc1nc2ccc(C(C)C)cc2s1)C(=O)N[C@H](CNC(=O)C1CCNCC1)C1CCCCC1 [Example 62, N—((S)-2-cyclohexyl-2-((S)-3-(6-isopropylbenzo[d]thiazol-2-yl)-2-propionamidopropanamido)ethyl)piperidine-4-carboxamide]"
15,0.0673,CCC(=O)N[C@@H](Cc1nc2ccc(C(C)C)cc2s1)C(=O)N[C@H](CNC(=O)C1CCN(C2COC2)CC1)C1CCCCC1 [Example 63]
16,0.119,CCC(=O)N[C@@H](Cc1nc2ccc(C(C)C)cc2s1)C(=O)N[C@H](CNC(=O)c1nnc[nH]1)C1CCCCC1 [Example 65]
17,0.299,CCC(=O)N[C@@H](Cc1nc2ccc(C(C)C)cc2s1)C(=O)N[C@H](CNC(=O)c1cn(C)cn1)C1CCCCC1 [Example 66]
